The values below come from ChEMBL document CHEMBL1201862, “PubChem BioAssay data set” (2004).

By GI50 is commonly meant the concentration at which growth is held to half of that of the control.

Test systems include SF-268; RXF 393; SF-539; IGROV-1; OVCAR-5; MDA-N; UO-31; MOLT-4; OVCAR-8; SK-OV-3; M19-MEL; HT-29; NCI-H460; NCI-H23; NCI-H226; SR; HCT-116; HL-60; SK-MEL-5; U-251.
Assay in all cases: DTP human tumour cell line panel, 48 h

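The compound was tested at five concentrations on cells cultured in 96-well plates, with a 48-hour exposure period. The concentration for 50% growth inhibition is given as GI50.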 Activity calls are given as the source filed them. No stated cut-off is given here; in the data, active = GI50 up to about 1.1 µM and inactive = higher.

In the case of `Cc1c(C)c(CC(=O)N2CC2)c(C)c(C)c1CC(=O)N1CC1`, the GI50 with SF-268 is 2.41 µM (inactive); in the test on RXF 393, 3.61 µM (inactive); with SF-539, 3.52 µM (inactive); in the test with IGROV-1 it was 17.1 µM (inactive); in the test on OVCAR-5, 25.7 µM (inactive); with MDA-N, 13.8 µM (inactive). Further, the GI50 with UO-31 is 13.5 µM (inactive); in the test with MOLT-4 it was 0.441 µM (active); in the test with OVCAR-8 it was 10.2 µM (inactive); in the test with SK-OV-3, 16.8 µM (inactive); in the test with M19-MEL, 12.9 µM (inactive); in the test with HT-29 it was 6.93 µM (inactive). The GI50 is 0.337 µM (active) with NCI-H460; 2.77 µM (inactive) with NCI-H23; 15.5 µM (inactive) in the test with NCI-H226; 0.33 µM (active) with SR; 9.02 µM (inactive) with HCT-116; 0.705 µM (active) with HL-60. The GI50 is > 10 µM (inactive) in the test on SK-MEL-5 and 5.56 µM (inactive) in the test with U-251.
Consider `COc1cc(/C=C(\C#N)C(N)=C(C#N)C#N)cc(O)c1O`, for which the GI50 in the test with SF-268 is > 87.9 µM (inactive); in the test with RXF 393 it was > 100 µM (inactive); in the test with SF-539, > 100 µM (inactive); in the test on IGROV-1, > 66.8 µM (inactive); with OVCAR-5, > 100 µM (inactive); with MDA-N, 68.2 µM (inactive). The GI50 was > 77.8 µM (inactive) in the test on UO-31; 55.2 µM (inactive) in the test with MOLT-4; 91.2 µM (inactive) in the test on OVCAR-8; > 100 µM (inactive) with SK-OV-3; > 100 µM (inactive) with M19-MEL; > 83.9 µM (inactive) in the test with HT-29. The GI50 in the test on NCI-H460 is > 89.1 µM (inactive); with NCI-H23, > 100 µM (inactive); in the test on NCI-H226, > 63.5 µM (inactive); in the test on SR, 35.1 µM (inactive); in the test on HCT-116 it was > 70.5 µM (inactive); in the test on HL-60, 26.9 µM (inactive). Also, the GI50 was > 100 µM (inactive) in the test with SK-MEL-5 and > 88.7 µM (inactive) in the test on U-251.
Consider `Nc1nccc2c1ncn2C1C=C(CO)C(O)C1O` (stereo not given), for which the GI50 with SF-268 is > 96.4 µM (inactive); with RXF 393, 87.9 µM (inactive); in the test with SF-539, 11.8 µM (inactive); in the test on IGROV-1, > 95.5 µM (inactive); in the test with OVCAR-5 it was 23.4 µM (inactive); with MDA-N, 2.99 µM (inactive). Also, the GI50 was 3.39 µM (inactive) in the test with UO-31; 2.55 µM (inactive) in the test with MOLT-4; 41.8 µM (inactive) in the test on OVCAR-8; > 100 µM (inactive) in the test on SK-OV-3; 62.5 µM (inactive) in the test on M19-MEL; 6.37 µM (inactive) in the test on HT-29. The GI50 in the test with NCI-H460 is 1.41 µM (inactive); with NCI-H23, 68.7 µM (inactive); with NCI-H226 it was 49.1 µM (inactive); in the test with SR, 3.29 µM (inactive); in the test with HCT-116 it was 1.28 µM (inactive); in the test with HL-60, 1.82 µM (inactive). Moreover, the results for the GI50 in the test with SK-MEL-5 and in the test on U-251 were 356 µM (inactive) and 51.8 µM (inactive), respectively.
Take `CC1=C(C(=O)Nc2ccccc2)C(c2ccc(C3C(C(=O)Nc4ccccc4)=C(C)NC(C)=C3C(=O)Nc3ccccc3)cc2)C(C(=O)Nc2ccccc2)=C(C)N1`: the GI50 in the test with SF-268 was 2.2 µM (inactive); with RXF 393, 1.91 µM (inactive); with SF-539, 3.56 µM (inactive); in the test with IGROV-1 it was 2.52 µM (inactive); with OVCAR-5, 7.35 µM (inactive); in the test with MDA-N it was 3.23 µM (inactive). The GI50 with UO-31 was 9.27 µM (inactive); with MOLT-4 it was 1.96 µM (inactive); with OVCAR-8, 3.03 µM (inactive); in the test with SK-OV-3, 13.1 µM (inactive); in the test with M19-MEL, 3.5 µM (inactive); in the test on HT-29 it was 1.85 µM (inactive). Besides, the GI50 with NCI-H460 was 2.67 µM (inactive); in the test on NCI-H23, 2.86 µM (inactive); in the test on NCI-H226, 3.96 µM (inactive); in the test with SR, 2.03 µM (inactive); with HCT-116, 2 µM (inactive); in the test on HL-60 it was 2.43 µM (inactive). In addition, the GI50 in the test on SK-MEL-5 was 2.26 µM (inactive); in the test with U-251, 1.49 µM (inactive).
Turning to `Nc1ccc(/N=N/c2ccc(-c3ccc(/N=N/c4c(S(=O)(=O)O)cc5cc(S(=O)(=O)O)c(/N=N/c6ccc([N+](=O)[O-])cc6)c(N)c5c4O)cc3)cc2)c2cc(S(=O)(=O)O)ccc12`, the GI50 with SF-268, in the test with RXF 393, in the test with SF-539, in the test on IGROV-1, with OVCAR-5 and in the test with UO-31 was > 100 µM (inactive) throughout. The GI50 in the test on MOLT-4, in the test with OVCAR-8, in the test with SK-OV-3, with M19-MEL, in the test with HT-29 and in the test with NCI-H460 was > 100 µM (inactive) throughout. Also, the GI50 in the test with NCI-H23, in the test with NCI-H226, in the test on SR, with HCT-116, in the test on HL-60 and in the test with SK-MEL-5 was > 100 µM (inactive) in each case. In the test with U-251, the GI50 was > 100 µM (inactive).
As to `CCOC(=O)C1=C(C)N(NC(=O)Nc2ccccc2)C(=O)C1=P(c1ccccc1)(c1ccccc1)c1ccccc1`, the GI50 is > 100 µM (inactive) in the test with SF-268; 28 µM (inactive) in the test with RXF 393; 28.2 µM (inactive) with SF-539; 29.6 µM (inactive) in the test on IGROV-1; > 100 µM (inactive) in the test with OVCAR-5; 74.6 µM (inactive) with UO-31. The GI50 in the test on MOLT-4 is 18.8 µM (inactive); in the test on OVCAR-8, 40 µM (inactive); in the test on SK-OV-3, > 100 µM (inactive); in the test on M19-MEL, 32.6 µM (inactive); in the test with HT-29, 52.2 µM (inactive); in the test with NCI-H460 it was 38.6 µM (inactive). Moreover, the GI50 in the test with NCI-H23 is 41.6 µM (inactive); with NCI-H226, 50 µM (inactive); with SR, 16.9 µM (inactive); in the test with HCT-116, 39.1 µM (inactive); with HL-60, 21.4 µM (inactive); in the test on SK-MEL-5 it was 33.8 µM (inactive). Further, the GI50 with U-251 was 33.9 µM (inactive).
With `COc1c(OC(C)=O)c(OC(C)=O)cc2c1-c1ccc(SC)c(=O)cc1C(NC(C)=O)CC2` (stereo not given), the GI50 with SF-268 is 0.472 µM (active); in the test on RXF 393, 3.66 µM (inactive); in the test on SF-539, 0.254 µM (active); in the test on IGROV-1, 0.933 µM (active); with OVCAR-5, 10.1 µM (inactive); with MDA-N it was 0.163 µM (active). Further, the GI50 was 71.9 µM (inactive) with UO-31; 0.968 µM (active) in the test on MOLT-4; 1.49 µM (inactive) in the test on OVCAR-8; 2.91 µM (inactive) in the test on SK-OV-3; 0.57 µM (active) in the test with M19-MEL; 0.461 µM (active) with HT-29. The GI50 is 2.9 µM (inactive) in the test with NCI-H460; 0.392 µM (active) in the test on NCI-H23; 7.82 µM (inactive) in the test on NCI-H226; 0.448 µM (active) in the test on SR; 0.685 µM (active) in the test with HCT-116; 0.208 µM (active) with HL-60. In addition, the figures for the GI50 with SK-MEL-5 and with U-251 were 0.184 µM (active) and 0.601 µM (active), respectively.
For the molecule `CC1=C(/C=C/C(C)=C/C2CC(N(C)C)=CC(=O)O2)C(C)(C)CCC1` (stereo not given), the GI50 in the test on SF-268 was 21 µM (inactive); with RXF 393, 14.9 µM (inactive); with SF-539 it was 16.5 µM (inactive); in the test with IGROV-1, 14.8 µM (inactive); with OVCAR-5 it was 11.6 µM (inactive); in the test with UO-31, 10.7 µM (inactive). Besides, the GI50 in the test with MOLT-4 is 3.2 µM (inactive); in the test with OVCAR-8 it was 15.5 µM (inactive); in the test on SK-OV-3, 16.4 µM (inactive); with M19-MEL, 14.3 µM (inactive); in the test with HT-29 it was 13.2 µM (inactive); in the test on NCI-H460 it was 17.7 µM (inactive). The GI50 is 13.5 µM (inactive) in the test on NCI-H23; 11.9 µM (inactive) in the test on NCI-H226; 8.09 µM (inactive) with SR; 12.9 µM (inactive) in the test on HCT-116; 1.44 µM (inactive) with HL-60; 5.45 µM (inactive) with SK-MEL-5. The GI50 with U-251 is 14.6 µM (inactive).
For `C/C(=N\NC(N)=S)c1ccc(/C(C)=N/NC(N)=S)cc1`, the GI50 with SF-268, in the test on RXF 393, with SF-539, in the test with IGROV-1, in the test with OVCAR-5 and in the test on UO-31 was > 100 µM (inactive) each time. The GI50 in the test on MOLT-4, in the test on OVCAR-8, with SK-OV-3, in the test with M19-MEL, with HT-29 and in the test on NCI-H460 was > 100 µM (inactive) each time. Besides, the GI50 in the test on NCI-H23, with NCI-H226, with SR, with HCT-116, with HL-60 and with SK-MEL-5 was > 100 µM (inactive) throughout. The GI50 in the test on U-251 was > 100 µM (inactive).
Consider `Oc1c(-c2ccccc2)nc2ccccn12`, for which the GI50 with SF-268, with RXF 393, in the test with SF-539, in the test on IGROV-1, in the test on OVCAR-5 and with UO-31 was > 100 µM (inactive) in each case. The GI50 with MOLT-4, with OVCAR-8, in the test with SK-OV-3, in the test with M19-MEL, with HT-29 and in the test with NCI-H460 was > 100 µM (inactive) each time. Further, the GI50 with NCI-H23, with NCI-H226, in the test on SR, in the test with HCT-116, in the test with HL-60 and with SK-MEL-5 was > 100 µM (inactive) in each case. Also, in the test with U-251, the GI50 is > 100 µM (inactive).
